Measured values as given in US7160894B2, “Tricyclic compound” (Asahi Kasei Pharma Corporation, priority 2003, dated 2007).

Columns and labels:
[1] = tested on: lipopolysaccharide-induced pulmonary inflammation; test: Pulmonary inflammation suppressing action, LPS-induced (Test Example 8); format: in vivo, BALB/c female mice; conditions: mice, LPS inhalation, test compound by inhalation over 10 minutes, 3 hours after administration
Description: According to Gonzales de Moraes, V L., et al., Br. J. Pharmacol., 123, pp. 631–6, 1998, suppressing action on pulmonary inflammation was studied. BALB/c female mice (7-week old) were used for the test, as the compound administration group and positive control group, each consisting of 7 mice, as well as the negative control group consisting of 5 mice. For induction of inflammation, a 0.03% physiological saline solution of a lipopolysaccharide (LPS, a mixture derived from Escherichia coli O55 and B5 strains, Sigma) was used. A test compound was dissolved in physiological saline to prepare solutions of various concentrations. The test animals were first inhaled with the aforementioned lipopolysaccharide solution for 10 minutes by using a pressurization type nebulizer (PARI-IS2) to induce inflammation. Then, 1 minute after the completion of the inhalation of the lipopolysaccharide solution, the animals were administered with a solution of test compound at various concentrations over 10 minutes by inhalation using the aforementioned nebulizer. The mice of the positive control group were administered with the same volume of physiological saline instead of the test compound solution over 10 minutes by inhalation. Three hours after the administration of the test compound, pulmonary cavities of the test animals were washed with physiological saline, and the total infiltrated leucocyte (WBC) number was counted.

[2] = tested on: ovalbumin-induced constriction of respiratory tract; test: Respiratory tract constriction suppressing action, administration by inhalation (Test Example 3); format: in vivo, Hartley guinea pigs; conditions: ovalbumin-immunized guinea pigs, 2 ml solution by inhalation over 5 minutes
Procedure: Four-week old Hartley guinea pigs (male) were immunized by intraperitoneal administration of ovalbumin (Sigma, Grade V) in amounts of 1 mg for each animal on the day on which the experiment was started, 3 mg for each animal after 2 days, and 10 mg for each animal after 4 days. Further, the respiratory tract constriction suppression action of the test compounds was also evaluated by inhalation. Twelve to fourteen days after the final sensitization, 10 mg/kg of pyrilamine (Sigma), 5 mg/kg of indomethacin (Wako), or 0.1 mg/kg of propranolol (Sigma) was intraperitoneally administered. Then, 30 minutes after the administration, a 0.1% ovalbumin aqueous solution was inhaled by using a pressurization type nebulizer (PARI-IS2) to induce constriction of the respiratory tract. Ten minutes after the induction, 2 ml of a solution of a test compound prepared at various concentrations was filled in the aforementioned nebulizer, and administered by inhalation over 5 minutes. After the administration of pyrilamine and other drugs, airway resistance value was continuously measured to determine effectiveness.

[3] = tested on: cerebral hippocampal neurons; test: Neurite outgrowth action (Test Example 5); format: cell-based, Sprague-Dawley rats; conditions: rat hippocampal neurons, 24 hours after addition
Procedure: From 18 day-old Sprague-Dawley rats, cerebral hippocampal neurons were prepared according to the method of Neuman et al. (Neuman, H. R. et al., J. Neurosci., 22, pp. 854–862, 2002). The prepared neurons were cultured for 24 hours according to the method of Tanaka et al. (Tanaka, H. et al., J. Cell Biol., 158 (2), pp. 321–329, 2002), then the medium was exchanged with fresh medium, and test medicaments of various concentrations or equivalent amounts of vehicle were added. Twenty-four hours after the addition of the medicaments, neurite length of each neuron was measured for the medicament-added group and the no-addition group, and compared. The neurite length was evaluated according to the method of Neuman et al. (Neuman, H. R. et al., J. Neurosci., 22, pp. 854–862, 2002).

[4] = tested on: thoracic aorta constricted with phenylephrine; test: Vasoconstriction inhibitory action (Test Example 2); set-up: species or system Rats (Wistar); conditions: test compound 1 μM; rat thoracic aorta constricted with phenylephrine 1 μM
Description: Rats (Wistar, 11-week old) were bleeded to death and laparotomized to take out the thoracic aorta. That aorta was cut into a ring of a length of about 3 mm in a conventional manner (Asano, T., et al., J. Pharmacol. Exp. Ther., 241, pp. 1033–1040 (1987)) and hung in 10-ml organ bath filled with Krebs-Hensright nutrient solution bubbled with a mixed gas of 95% O2 and 5% CO2. One end of the blood vessel was connected to an isometric transducer (FD Pickup TB-912T, Nihon Kohden) and applied with 2.5 g of resting tension, and constriction and relaxation reactions of the aorta were recorded.
The aorta was constricted with phenylephrine (1 μM, Sigma) and then added with a test compound (1 μM), and the vasoconstriction inhibitory action thereof was observed. The vasoconstriction inhibitory actions of the test compounds were calculated as relaxation ratios, which were based on the vasoconstriction with phenylephrine observed immediately before the addition of the test compounds taken as 100%.

[5] = tested on: ovalbumin-induced constriction of respiratory tract; test: Respiratory tract constriction suppressing action, intravenous administration (Test Example 3); format: in vivo, Hartley guinea pigs; conditions: ovalbumin-immunized guinea pigs, administered from cannula in hind leg vein, measured for 15 minutes
Procedure: Four-week old Hartley guinea pigs (male) were immunized by intraperitoneal administration of ovalbumin (Sigma, Grade V) in amounts of 1 mg for each animal on the day on which the experiment was started, 3 mg for each animal after 2 days, and 10 mg for each animal after 4 days. Twelve to fourteen days after the final immunization, the ovalbumin-immunized guinea pigs were anesthetized by intraperitoneal administration of about 40 mg/kg of pentobarbital (Somnopentyl), and the tracheas were taken out. Subsequently, a cannula (SP-110, Natsume) was inserted into each trachea, and one end of the cannula was connected to an artificial respirator (Model-b83, Harvard). The aeration conditions were set at 6 ml per kilogram and 60 times per 1 minute. Further, a cannula for medicament administration (JMS wing needle 23G 3/4) was inserted into a hind leg vein. Myoblock (Organon Technica) was administered in an amount of 0.5 mg/kg from the cannula inserted into the hind leg vein to stop the spontaneous breathing, and after 2 or 3 minutes, 0.3 mg/kg of ovalbumin was administered to induce constriction of respiratory tract. The increase of airway resistance value 2 minutes after the induction (measurement apparatuses: pressure transducer TR-603T, respiratory amplifier AR-601G, and recorder RTA-3100, Nihon Kohden Corp.) was confirmed to be above 80 cm H2O or higher, and then, a solution of a test medicament was administered from the cannula inserted into the hind leg vein, and the airway resistance value was continuously measured for 15 minutes after the administration to determine the effect.

intraocular pressure = test: Intraocular pressure reducing action (Test Example 4); format: in vivo, Japanese white rabbit; conditions: rabbit, 50 μl of aqueous solution dropped to the left eye
Procedure: A Japanese white rabbit having a body weight of about 2 kg was placed in a positioner and naturalized for one week before the experiment. An ophthalmologic local anesthesant (Benoxil) was administered to the left eye, and then intraocular pressure was measured by using a tonometer (Classic 30, Solan). The initial value of the intraocular pressure was measured, then 50 μl of an aqueous solution of a test compound was dropped to the left eye at various concentrations, and the intraocular pressure was measured with passage of time.

[6] = tested on: myosin regulatory light chain; conditions: mesenteric artery, iris smooth muscle, astrocyte; cited from earlier work

For `Cl.O=C(O)CN1CCC(N2CCc3cncc4cccc2c34)CC1` [Example 17], the “pulmonary inflammation, total infiltrated leucocyte (WBC) number” value (“pulmonary inflammation” below) [1] was “significantly improved the pathological condition”, the “improvement of constriction of respiratory tract (airway resistance value)” value (from here on “improvement”) [2] was “significantly improved the constriction of respiratory tract” and the “neurite outgrowth (neurite length)” value [3] was “significant neurite outgrowth axis extension”. The “vasoconstriction inhibitory action (relaxation ratio)” value [4] was “significant vasoconstriction inhibitory action” and the “improvement” value [5] was “significantly improved the constriction of respiratory tract”.
With `Cl.NCCN[C@H]1CC[C@H](N2CCc3cncc4cccc2c34)CC1` [Example 24] the “pulmonary inflammation” value [1] was “significantly improved the pathological condition”, the “improvement” value [2] was “significantly improved the constriction of respiratory tract” and the “neurite outgrowth (neurite length)” value [3] was “significant neurite outgrowth axis extension”. The “vasoconstriction inhibitory action (relaxation ratio)” value [4] was “significant vasoconstriction inhibitory action” and the “improvement” value [5] was “significantly improved the constriction of respiratory tract”.
In the case of `Cl.NC(=O)CN1CCC(N2CCc3cncc4cccc2c34)CC1` [Example 20], the “intraocular pressure reducing action” value (intraocular pressure) is reported as “significant intraocular pressure reducing action”, the “pulmonary inflammation” value [1] is reported as “significantly improved the pathological condition” and the “improvement” value [2] is reported as “significantly improved the constriction of respiratory tract”. For the same molecule, the “neurite outgrowth (neurite length)” value [3] was “significant neurite outgrowth axis extension”, the “vasoconstriction inhibitory action (relaxation ratio)” value [4] was “significant vasoconstriction inhibitory action” and the “improvement” value [5] was “significantly improved the constriction of respiratory tract”.
In the case of `CC1CNCCN1S(=O)(=O)c1cccc2cnccc12` (centres unmarked) [Example H-7, 1-(5-isoquinolinesulfonyl)-2-methylpiperazine], the “inhibition of phosphorylation of the myosin regulatory light chain” value [6] is listed as “inhibits phosphorylation of the myosin regulatory light chain”.
